Like-named read-outs stand apart in the source and are kept apart here.
What was measured:
[1] = system: DFMO treated Chinese hamster ovary (CHO) cells; experiment: DFMO/spermidine rescue assay in CHO cells (Assay 2); type: cell-based; settings: for IC50 / EC50: Cricetulus griseus, CHO; for activity in DFMO assay: CHO cells; for EC50: Table 2
Experimental: In the reconfirmation assay compounds were run in quadruplicate. […] A PTI compound is expected to block the entry or disrupt the intracellular trafficking of spermidine and inhibit the ability of spermidine to rescue the growth or viability of DFMO treated cells.
DFMO/Spermidine assay Here cells were treated with an inhibitor of polyamine biosynthesis (DFMO) and rescued back to high viability by the presence of exogenous polyamine (spermidine). Putative PTI compounds were screened for their ability to block the entry or intracellular trafficking of exogenous spermidine (or otherwise disrupt the intracellular trafficking of spermidine) by measuring cell viability in the presence of DFMO+spermidine+PTI compound. […] This was followed by adding 10 μL of […] and 5 μM spermidine (FAC 5 mM DFMO and 1 μM spermidine) in assay medium with a Beckman BioRAPTR FRD dispenser or 10 μL of 5 mM DFMO added in assay medium (positive control). […] A PTI compound is expected to block the entry or disrupt the intracellular trafficking of spermidine and inhibit the ability of spermidine to rescue the growth or viability of DFMO treated cells Cytotoxicity

[2] = system: CHO cells; experiment: Ant44 rescue assay in CHO cells (Assay 1); type: cell-based, Chinese hamster; settings: for IC50 / EC50: Cricetulus griseus; for Active in Ant44 assay?: Table 2, in CHO
Experimental: CHO K1 cells were grown in growth medium (RPMI+10% FBS+1×P/S+1% l-glutamine) to 70% confluency, washed in PBS and trypsinized. Cells were plated in assay medium (serum free RPMI+2% FBS+1×l-glutamine+1×P/S+[…] aminoguanidine) at 50000 cells/mL for 200 cells per well in 4 ul using a Thermo Multidrop Combi into a 1536-well white Aurora plate.
Ant44 is a cytotoxic polyamine, i.e., N^1-(9-anthracenyl)-homospermidine. A non-toxic PTI compound would block entry or intracellular trafficking of the Ant44 toxin and rescue the cells back to high viability. Therefore, this screen tested for compounds which rescued cells from Ant44 toxicity. […] This was followed by adding 10 uL of 10 uM Ant44 (FAC 2 uM) in assay medium with a Beckman BioRAPTR FRD dispenser or 10 uL of cells added in assay medium (positive control).

[3] = system: L3.6pl cells; experiment: DFMO/Spd rescue assay in L3.6pl cells; type: cell-based, human; settings: for EC value in DFMO/Spd rescue assay: Table 9, ECx = y: x% effect at y μM
Experimental: In another example in the DFMO spermidine (Spd) rescue assay an EC38=8 means that the PTI molecule at 8 μM was able to block 38% of the entry of spermidine into DFMO treated L3.6 pl cells after 72 h incubation time at 37° C. Another explanation, is that the PTI was able to disrupt […] of the intracellular trafficking of Spd that leads to cell rescue. […] Since both Ant44 and Spermidine are polyamine-based systems, cells likely use one mode of the polyamine transport (basal or obligate) in each assay.
(§1) The higher EC value denotes the compound is giving a relative % growth of L3.6 pl cells consistent with inhibiting either Ant44 uptake or blocking the uptake of the rescuing dose of spermidine. Alternatively these compounds may disrupting the intracellular trafficking of Ant44 and spermidine so they cannot reach their intended intracellular target.

[4] = system: L3.6pl cells; experiment: cells; type: cell-based; settings: for IC50: Homo sapiens, L3.6pl; for L3.6pl MTC: maximum tolerated concentration where cells are >90% viable
[5] = system: L3.6pl cells; experiment: Ant44 assay in L3.6pl cells; type: cell-based, human; settings: for EC50: Homo sapiens, L3.6pl; for EC value in Ant44 (3 μM) assay: Table 9, ECx = y: x% effect at y μM
Experimental: For example, in the ANT44 assay an EC48=9 means that the PTI molecule at 9 μM was able to block 48% of the Ant44 entry into L3.6 pl human Pancreatic ductal adenocarcinoma cells after 72 h incubation time at 37° C. Another explanation, is that the PTI was able to disrupt […] of the intracellular trafficking of Ant44 that leads to toxicity. Recall a polyamine transport inhibitor can work at any one (or more than one) of the different steps involved in the multi-step polyamine import and intracellular trafficking process. Blocking the entering spermidine from reaching its intended intracellular target is another way in which these compounds may function.
as §1

[6] = system: CHO cells; experiment: Cytotoxicity screen in CHO cells; settings: for IC50 at 48 h: Chinese hamster, CHO K1 cells
Experimental: CHO K1 cells were grown in growth medium to 70% confluency and washed in PBS and trypsinized. […] Cells were spun at 100×g for 1 minute and incubated at 37° C. in a humidified CO2 incubator for 24 hours. […] Cellular ATP content was then assayed by adding 3 uL of ATPLite with a Beckman BioRAPTR FRD dispenser and incubated for 10 minutes at room temperature. Plates were spun at 200×g for 1 minute and read on a Perkin Elmer Viewlux multimode plate reader using luminescence mode. This assay was used for testing dose-response of dry powders.
CHO K1 cells were grown in growth medium to 70% confluency and washed in PBS and trypsinized. Cells were plated in assay medium at 10000 cells/mL for 200 cells per well using a Thermo Multidrop Combi in 20 uL into a white Greiner plate. Cells were spun at 100×g for 1 minute and incubated at 37° C. in a humidified CO2 incubator for 24 hours. […] This was followed by adding by 10 μL of assay medium to all wells with a Beckman BioRAPTR FRD dispenser. The plates were spun at 200×g for 1 minute and incubated at 37° C. in a humidified 5% CO2 incubator for 48 hours. Cellular ATP content was then assayed by adding 20 μL of ATPLite with a Beckman BioRAPTR FRD dispenser and incubated for 10 min at room temperature. Plates were spun at 200×g for 1 minute and read on a Perkin Elmer Envision for multimode plate reader using luminescence mode. Duplicates were run for each compound concentration, and the curves represent the average of the duplicates as percent viability.
The final compound concentration was either 20 μM or 10 μg/mL (depending upon the compound source). A successful PTI in Assay 1 would block the uptake of the toxic Ant44 probe and rescue the cells back to >90% relative growth vs an untreated control. It was critical to also evaluate the toxicity of the PTI by itself as a toxic PTI would give a false negative in Assay1 (and a false positive in Assay 2). […] Assay 2 then evaluated the ability of the compound to inhibit the uptake of a rescuing dose of Spermidine (Spd, 1 μM) into DFMO-treated CHO cells.

[7] = Table 7, read-out: SAR IC50 DFMO assay
[8] = CHO, Table 7, read-out: SAR IC50 Ant44 assay
[9] = read-out: IC50 values (toxicity profile)
[10] = relative growth after 72 h, read-out: L3.6pl IC50
[11] = Table 4B, read-out: DFMO/CHO IC50
[12] = Homo sapiens, Table 2, DFMO rescue in L3.6pl
[13] = 72 h, Table 9, read-out: 72 h IC50

Row | Compound | IC50 [1, 7] | IC50 [2, 8] | IC50 at 48 h [6] | EC value in DFMO/Spd rescue assay [3] | IC50 [4, 13] | MTD ([4]; Table 9) | EC value in Ant44 (3 μM) assay [5] | also measured
1 | COc1ccccc1C(=O)Nc1ccc(N2CCC(Oc3ccccc3)CC2)cc1C(=O)O [SBI-0814420, 2-(2-methoxybenzamido)-5-(4-phenoxypiperidin-1-yl)benzoic acid] | 19 µM | 32 µM | > 40 µM |  |  |  |  | worked in Assay 2 (DFMO) [3]: performed in both assays; IC50 [4, 9]: > 38 µM; IC50 [4, 10]: 38.6 ± 0.06 µM; L3.6pl MTC [4]: 10 µM; worked in Assay 1 (Ant44) [5]: performed in both assays
2 | COc1ccccc1C(=O)Nc1ccc(N2CCC(c3ccccc3)CC2)cc1C(=O)O [SBI-0814418, 2-(2-methoxybenzamido)-5-(4-phenylpiperidin-1-yl)benzoic acid] | 21 µM | 18 µM | > 40 µM |  |  |  |  | activity in DFMO assay [1]: modest activity; EC50 [1]: 21 µM; IC50 [1, 11]: 21 µM; activity in Ant44 assay ([2]; CHO cells): modest activity; EC50 ([2]; CHO, Table 2, Active in Ant44 assay?, read-out: Ant44 assay EC50 in CHO): 19 µM; IC50 ([2]; Table 4B, CHO cells, read-out: Ant44 IC50): 19 µM; Active in Ant44 assay? [2]: Yes; activity in DFMO assay run in L3.6 pl [3]: micromolar activity; EC50 [3, 12]: 5 µM; L3.6pl MTD ([4]; Table 2): 5 µM; L3.6pl MTD ([4]; Table 4B): (5-10) μM; L3.6pl MTD cell: percentage at 10 μM ([4]; at 10 μM): 80%; Active in Ant44 assay? ([5]; Table 2, in L3.6pl): no; general toxicity ([6]; CHO cells): without general toxicity; CHO MTD ([6]; hamster): >32 µM
3 | O=C(Nc1ccc(N2CCN(c3ccccn3)CC2)cc1C(=O)O)c1ccco1 [SBI-0814419, 2-(furan-2-carboxamido)-5-(4-(pyridin-2-yl)piperazin-1-yl)benzoic acid] | > 40 µM | > 40 µM | > 40 µM |  |  |  |  | Active in DFMO assay? ([1]; Table 3, in CHO): No in CHO and in L3.6pl; EC50 ([2]; CHO, Table 3, read-out: Ant44 rescue EC50 CHO): > 32 µM; Ant44 IC50 ([2]; Table 5B, CHO cells): trace; worked in Assay 2 (DFMO) [3]: performed in both assays; Active in DFMO assay? ([3]; Table 3, in L3.6pl): No in CHO and in L3.6pl; IC50 [4, 9]: > 38 µM; IC50 [4, 10]: > 50 µM; MTD L3.6pl ([4]; Table 3): >20 µM; L3.6pl MTD ([4]; Table 5B): (>10) uM; L3.6pl MTC [4]: 12 µM; worked in Assay 1 (Ant44) [5]: performed in both assays; EC50 ([5]; Table 3, read-out: Ant44 rescue EC50 L3.6pl): 10 µM; EC50 ([5]; Table 5B, Ant44 blockade, read-out: L3.6pl EC50): 10 µM; MTD CHO ([6]; hamster): >32 µM
4 | O=C(Nc1ccc(N2CCC(Oc3ccccc3)CC2)cc1C(=O)O)c1ccc(-c2ccc(Cl)cc2)o1 |  |  |  | EC6 = 1 μM | > 1 µM | 1 µM | Not working | 
5 | O=C(Nc1ccc(F)cc1C(=O)O)c1ccco1 |  |  |  | EC67 = 100 μM | > 100 µM | >100 µM | EC36 = 50 μM | 
6 | COc1ccc(C(=O)Nc2ccc(N3CCN(c4cc(Cl)ccc4C)CC3)cc2C(=O)O)cc1 [drawing 134] |  |  |  | EC49 = 8 μM | 16.8 ± 0.1 µM | 8 µM | EC21 = 8 μM | 
7 | COc1ccccc1C(=O)Nc1ccc(N2CCN(c3cc(Cl)ccc3C)CC2)cc1C(=O)O [drawing 136] |  |  |  | EC29 = 5 μM | 29.1 ± 0.03 µM | >5 µM | not working as a PTI | 
8 | O=C(Nc1ccc(N2CCC(Oc3ccccc3)CC2)cc1C(=O)O)c1cc2ccccc2o1 |  |  |  | EC30 =10 μM | 44.4 ± 0.04 µM | 10 µM | EC7 = 10 μM | 
9 | COc1ccc(C(=O)Nc2ccc(N3CCN(c4cc(Cl)ccc4C)CC3)cc2C(=O)O)c(OC)c1 [drawing 135] |  |  |  | EC15 = 20 μM | > 50 µM | >20 µM | inactive | 
10 | O=C(Nc1ccc(N2CCC(Oc3ccccc3)CC2)cc1C(=O)O)c1cccnc1 |  |  |  | EC25 = 8 μM | > 50 µM | 10 µM | Not working | 
11 | O=C(Nc1ccc(N2CCC(Oc3ccccc3)CC2)cc1C(=O)O)c1cc2ccccc2[nH]1 |  |  |  | EC30 = 9 μM | 38.3 ± 0.04 µM | 10 µM | not working as a PTI | 
12 | Cl.O=C(Nc1ccc(N2CCNCC2)cc1C(=O)O)c1ccco1 |  |  |  | EC10 = 40 μM | > 50 µM | 40 µM | EC22 = 40 μM | 
13 | COc1ccccc1C(=O)Nc1ccc(N2CCN(Cc3ccccn3)CC2)cc1C(=O)O [SBI-0814421, 2-(2-methoxybenzamido)-5-(4-(pyridin-2-ylmethyl)piperazin-1-yl)benzoic acid] | 10 µM | > 40 µM | > 40 µM |  |  |  |  | activity in DFMO assay [1]: some level of activity; EC50 [1]: 20 µM; IC50 [1, 11]: 9.5 µM; Active in Ant44 assay? [2]: No in CHO; EC50 [3, 12]: > 10 µM; EC50 ([3]; Table 4B, DFMO-spermidine rescue): > 10 µM; L3.6pl MTD ([4]; Table 2): 10 µM; L3.6pl MTD ([4]; Table 4B): (10) μM; CHO MTD ([6]; hamster): >20 µM

From US11905268B2, “Anthranilic acid derivatives and their use in the treatment of human cancers” (UNIVERSITY OF CENTRAL FLORIDA RESEARCH FOUNDATION, INC., priority 2018, dated 2024)
